Measurements reported in patent US20080287653A1, “METHOD FOR PRODUCING INHIBITORS AND INHIBITORS FORMED THEREFROM” (THE UNIVERSITY OF AKRON, priority 2007, published 2008).
Marks after values point to notes of the source that are not given here. Each block holds one molecule with its values, some of them ahead of it. Non-standard residues stand in square brackets, D forms with d. Residues, ends and D or L forms follow the SMILES beside them. Lys(Thioacetyl) = CC(=S)NCCCC[C@H](N)C(=O)O

How the values were obtained:
SIRT1 = target: T1, SIRT1 (Homo sapiens, UniProt Q96EB6); assay: HPLC-based SIRT1 inhibition assay with purified GST-SIRT1; format: biochemical
T1 construct: made in house
T1 sequence (Q96EB6 1-747): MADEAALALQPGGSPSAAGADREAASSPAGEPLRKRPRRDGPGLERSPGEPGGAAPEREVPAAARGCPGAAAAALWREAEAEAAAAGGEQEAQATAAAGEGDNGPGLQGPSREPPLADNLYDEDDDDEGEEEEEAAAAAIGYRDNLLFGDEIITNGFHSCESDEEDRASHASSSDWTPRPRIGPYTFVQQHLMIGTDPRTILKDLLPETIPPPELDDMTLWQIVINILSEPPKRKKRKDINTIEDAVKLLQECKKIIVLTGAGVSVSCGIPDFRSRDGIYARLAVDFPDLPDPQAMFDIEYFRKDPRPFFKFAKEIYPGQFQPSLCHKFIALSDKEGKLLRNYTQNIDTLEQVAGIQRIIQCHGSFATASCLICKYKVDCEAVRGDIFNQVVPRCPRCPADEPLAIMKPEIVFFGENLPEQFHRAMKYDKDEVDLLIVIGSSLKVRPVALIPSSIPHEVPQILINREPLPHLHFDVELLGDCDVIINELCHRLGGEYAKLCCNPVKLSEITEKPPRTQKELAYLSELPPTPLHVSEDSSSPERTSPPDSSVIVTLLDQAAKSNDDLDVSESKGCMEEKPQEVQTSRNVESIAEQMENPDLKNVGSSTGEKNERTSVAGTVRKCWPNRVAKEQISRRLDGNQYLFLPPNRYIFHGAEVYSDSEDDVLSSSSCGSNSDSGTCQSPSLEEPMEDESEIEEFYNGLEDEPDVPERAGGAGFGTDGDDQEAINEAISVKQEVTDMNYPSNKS
Experimental: Inhibition assays with purified SIRT1, SIRT2, and SIRT3. GST-SIRT1 that could be produced in a laboratory was used for the SIRT1 inhibition assay. SIRT2 and SIRT3 are obtainable from commercial sources known to those skilled in the art. Consistent HPLC-based assay procedures were used for the inhibition assays with SIRT1, SIRT2, and SIRT3. […] An enzymatic reaction was initiated by the addition of an enzyme at 37° C. and was allowed to be incubated at 37° C.: 10 minutes as follows: for SIRT1 assay, or 60 minutes for SIRT2 and SIRT3 assays. Incubation was quenched at the indicated time with the following stop solution: 100 mM HCl and 0.16 M acetic acid. […] All peptide stock solutions were prepared in ddH2O. IC50 values were estimated from Dixon plots (1/v0 vs. [inhibitor]) as an indication of the inhibition potency.

HDAC8 [1] = target: T2, HDAC8 (Homo sapiens, UniProt Q9BY41); assay: HPLC-based assay with purified HDAC8 (de(thio)acetylation of peptides); format: biochemical; parameters: key to HDAC8 (sensitive / resistant to HDAC8): +: Sensitive to HDAC8; —: Resistant to HDAC8; details: enzymatic dethioacetylation by HDAC8
T2 construct: purchased
T2 sequence (Q9BY41 1-377): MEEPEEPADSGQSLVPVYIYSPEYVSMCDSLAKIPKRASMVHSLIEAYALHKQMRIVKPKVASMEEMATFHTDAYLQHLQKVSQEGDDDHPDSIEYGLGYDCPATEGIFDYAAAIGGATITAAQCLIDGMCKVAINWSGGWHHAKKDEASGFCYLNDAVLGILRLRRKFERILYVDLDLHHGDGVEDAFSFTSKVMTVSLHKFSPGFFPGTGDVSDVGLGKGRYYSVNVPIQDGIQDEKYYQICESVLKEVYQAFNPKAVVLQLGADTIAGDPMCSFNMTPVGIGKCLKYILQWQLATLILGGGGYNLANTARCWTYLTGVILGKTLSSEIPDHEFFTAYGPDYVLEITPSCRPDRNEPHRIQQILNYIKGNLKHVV
Experimental: To test the foregoing premise, peptides 1b, 2, and 3a were allowed to be incubated for 2 hours at room temperature in the HDAC8 assay buffer in a HPLC-based HDAC8 assay. […] FIG. 5 provides representative HPLC chromatograms from HDAC8 assays with peptides 1b, 2, and 3a. All assays were performed in duplicate and essentially the same HPLC chromatograms were obtained for the duplicates. The small peak with tR˜27 minutes in the second chromatogram was from a minor impurity in the purified peptide 2 sample, rather than the dethioacetylated product. The lack of detectable dethioacetylation of peptide 3a was apparent from the absence of a peak with tR˜34 minutes, shown for peptide 3c in the third chromatogram.
Assay with purified HDAC8. The purified HDAC8 could be obtained from a commercial source for use with a HPLC-based HDAC8 assay. In brief, a HDAC8 assay solution had the following components: 25 mM Tris.HCl (pH 8.0), 137 mM NaCl, 2.7 mM KCl, 1 mM MgCl2, 1 mg/mL BSA (SIGMA Cat. #A3803 with reduced fatty acid content), 0.3 mM peptide 1b, 2, or 3a, and 1.5 μM HDAC8. […] An enzymatic reaction was initiated by the addition of HDAC8 at room temperature and was allowed to be incubated at room temperature for 2 hours before being quenched with the following stop solution: 1.0 M HCl and 0.16 M acetic acid. The quenched assay solutions were directly injected into a reversed-phase HPLC C18 column (100 Å, 0.46×25 cm), eluting with the following gradients of ddH2O containing 0.05% (v/v) trifluoroacetic acid (mobile phase A) and acetonitrile containing 0.05% (v/v) trifluoroacetic acid (mobile phase B): linear increase from 0% B to 35% B (for the assay with peptide 2 or 1b) or 40% B (for the assay with peptide 3a or […]) from 0-40 minutes (1 mL/min), and UV monitoring at 214 nm. […] The enzymatically formed peptide 1c was confirmed by its comigration with the chemically synthesized authentic sample and by MALDI-TOF mass spectrometric analysis, and was quantified by HPLC peak integration and comparison with that of synthetic authentic sample.

SIRT3 = target: T3, SIRT3 (Homo sapiens, UniProt Q9NTG7); assay: HPLC-based SIRT3 inhibition assay with purified SIRT3; format: biochemical; details: SIRT3 vs SIRT1
T3 construct: purchased
T3 sequence (Q9NTG7 1-399): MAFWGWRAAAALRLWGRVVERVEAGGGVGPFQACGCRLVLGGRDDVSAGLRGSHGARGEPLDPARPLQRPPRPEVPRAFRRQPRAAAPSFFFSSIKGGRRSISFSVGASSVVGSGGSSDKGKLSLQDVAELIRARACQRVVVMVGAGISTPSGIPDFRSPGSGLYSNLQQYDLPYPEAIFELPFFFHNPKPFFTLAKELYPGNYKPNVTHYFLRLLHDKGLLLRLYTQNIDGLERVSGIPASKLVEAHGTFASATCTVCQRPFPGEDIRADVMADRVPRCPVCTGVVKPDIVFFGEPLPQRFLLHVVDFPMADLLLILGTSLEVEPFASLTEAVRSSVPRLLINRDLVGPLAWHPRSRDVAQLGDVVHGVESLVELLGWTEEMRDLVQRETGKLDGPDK
Experimental: (§1) Inhibition assays with purified SIRT1, SIRT2, and SIRT3. GST-SIRT1 that could be produced in a laboratory was used for the SIRT1 inhibition assay. SIRT2 and SIRT3 are obtainable from commercial sources known to those skilled in the art. Consistent HPLC-based assay procedures were used for the inhibition assays with SIRT1, SIRT2, and SIRT3. In brief, an inhibition assay solution had the following components: 25 mM (or 50 mM for SIRT2 assay) Tris.HCl (pH 8.0) 137 mM NaCl, 2.7 mM KCl, 1 mM MgCl2, 1 mg/mL BSA (SIGMA Cat. #A3803 with reduced fatty acid content, for SIRT2 assay only), 0.5 mM β-NAD^+, 0.3 mM peptide substrate (peptide 1b for SIRT1 and SIRT2 assays; peptide 3b for SIRT3 assay), an inhibitor (peptide 1a, 2, or 3a) with varied concentrations including 0, and an enzyme (GST-SIRT1, 0.15 μM; SIRT2, 0.3 μM; or SIRT3, 2.0 μM). […] An enzymatic reaction was initiated by the addition of an enzyme at 37° C. and was allowed to be incubated at 37° C.: 10 minutes as follows: for SIRT1 assay, or 60 minutes for SIRT2 and SIRT3 assays. […] The enzymatic deacetylation products (peptide 1c in SIRT1 and SIRT2 assays; peptide 3c in SIRT3 assay) were confirmed by their comigration with the chemically synthesized authentic samples and by MALDI-TOF mass spectrometric analysis, and were quantified by HPLC peak integration and comparison with those of synthetic authentic samples. […]

SIRT1, SIRT2, and SIRT3 = assay: Dethioacetylation of inhibitor peptides under the sirtuin inhibition assay conditions; format: biochemical, human; details: same assay conditions as SIRT1/SIRT2/SIRT3 inhibition assays
Experimental: Inhibition assays with purified SIRT1, SIRT2, and SIRT3. GST-SIRT1 that could be produced in a laboratory was used for the SIRT1 inhibition assay. SIRT2 and SIRT3 are obtainable from commercial sources known to those skilled in the art. Consistent HPLC-based assay procedures were used for the inhibition assays with SIRT1, SIRT2, and SIRT3. In brief, an inhibition assay solution had the following components: 25 mM (or 50 mM for SIRT2 assay) Tris.HCl (pH 8.0) 137 mM NaCl, 2.7 mM KCl, 1 mM MgCl2, 1 mg/mL BSA (SIGMA Cat. #A3803 with reduced fatty acid content, for SIRT2 assay only), 0.5 mM β-NAD^+, 0.3 mM peptide substrate (peptide 1b for SIRT1 and SIRT2 assays; peptide 3b for SIRT3 assay), an inhibitor (peptide 1a, 2, or 3a) with varied concentrations including 0, and an enzyme (GST-SIRT1, 0.15 μM; SIRT2, 0.3 μM; or SIRT3, 2.0 μM). […] An enzymatic reaction was initiated by the addition of an enzyme at 37° C. and was allowed to be incubated at 37° C.: 10 minutes as follows: for SIRT1 assay, or 60 minutes for SIRT2 and SIRT3 assays. Incubation was quenched at the indicated time with the following stop solution: 100 mM HCl and 0.16 M acetic acid. The conversion of the limiting substrate to the product was maintained at ≦12%. The quenched assay solutions were directly injected into a reversed-phase HPLC C18 column (100 Å, 0.46×25 cm), eluting with the following gradients of ddH2O containing 0.05% (v/v) trifluoroacetic acid (mobile phase A) and acetonitrile containing 0.05% (v/v) trifluoroacetic acid (mobile phase B): linear increase from 0% B to 35% B (for SIRT1 assay) or 40% B (for SIRT2 and SIRT3 assays) from 0-40 minutes (1 mL/min), and UV monitoring at 214 nm. The enzymatic deacetylation products (peptide 1c in SIRT1 and SIRT2 assays; peptide 3c in SIRT3 assay) were confirmed by their comigration with the chemically synthesized authentic samples and by MALDI-TOF mass spectrometric analysis, and were quantified by HPLC peak integration and comparison with those of synthetic authentic samples. […] All peptide stock solutions were prepared in ddH2O. […]

HDAC8 [2] = target: T2, HDAC8; details: inventors' earlier work, Fatkins et al.; cited from earlier work
SIRT2 = target: T4, SIRT2 (Homo sapiens, UniProt Q8IXJ6); assay: HPLC-based SIRT2 inhibition assay with purified SIRT2; format: biochemical; details: SIRT2 vs SIRT1
T4 construct: purchased
T4 sequence (Q8IXJ6 1-389): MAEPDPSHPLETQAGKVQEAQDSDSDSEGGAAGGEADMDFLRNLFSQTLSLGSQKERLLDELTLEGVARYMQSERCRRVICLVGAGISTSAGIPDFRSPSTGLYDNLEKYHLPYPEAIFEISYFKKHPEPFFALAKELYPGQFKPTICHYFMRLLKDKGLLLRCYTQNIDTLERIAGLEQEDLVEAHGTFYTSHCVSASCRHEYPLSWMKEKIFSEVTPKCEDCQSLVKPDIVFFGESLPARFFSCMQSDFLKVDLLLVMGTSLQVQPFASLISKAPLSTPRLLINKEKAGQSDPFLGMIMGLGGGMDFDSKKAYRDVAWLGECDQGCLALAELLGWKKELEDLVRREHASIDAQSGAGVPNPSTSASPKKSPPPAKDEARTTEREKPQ
Experimental: as §1

decrease in SIRT1 inhibition potency following truncation of peptide 1a (SIRT1; vs peptide 1a): approximately 6 fold
Structure (SMILES): CSCC[C@H](NC(=O)[C@H](CC(C)C)NC(=O)[C@H](CCCCNC(C)=S)NC(=O)[C@H](CCCCN)NC(=O)[C@@H](N)Cc1c[nH]cn1)C(=O)O [Peptide 4] (H-HK[Lys(Thioacetyl)]LM-OH)

IC50 (SIRT1): 10.4 ± 0.3 µM
Structure (SMILES): CSCC[C@H](NC(=O)[C@H](CC(C)C)NC(=O)[C@H](CCCCNC(C)=S)NC(=O)[C@H](CCCCN)NC(=O)[C@@H](N)Cc1cnc[nH]1)C(=O)O [Peptide 4] (H-HK[Lys(Thioacetyl)]LM-OH)

HDAC8 (sensitive / resistant to HDAC8) (HDAC8 [1]): +^c | inhibition potency weaker against SIRT3 than against SIRT1 (SIRT3): approximately 35 fold | inhibition potency against SIRT2 relative to that against SIRT1 (SIRT2): comparable inhibition potency
Structure (SMILES): CSCC[C@H](NC(=O)[C@H](CC(C)C)NC(=O)[C@H](CCCCNC(C)=S)NC(=O)[C@H](CCCCN)NC(=O)[C@H](Cc1c[nH]cn1)NC(=O)[C@H](CCCNC(=N)N)NC(=O)[C@H](CO)NC(=O)[C@@H](NC(=O)[C@H](CO)NC(=O)[C@H](CCC(N)=O)NC(=O)CNC(=O)[C@H](CCCCN)NC(=O)[C@@H](N)CCCCN)[C@@H](C)O)C(=O)N[C@@H](Cc1ccccc1)C(=O)N[C@@H](CCCCN)C(=O)N[C@H](C(=O)N[C@@H](CCC(=O)O)C(=O)NCC(=O)O)[C@@H](C)O [Peptide 1a]
formation of dethioacetylated peptide under sirtuin inhibition assay conditions (SIRT1, SIRT2, and SIRT3): did not give rise to detectable formation | de(thio)acetylation by HDAC8 (previously demonstrated) (HDAC8 [2]): comparably de(thio)acetylated by HDAC8

Second part, the molecule before the results:

Structure (SMILES): CC(=O)N[C@@H](CCCCNC(C)=S)C(=O)O [N^α-acetyl-N^ε-thioacetyl-lysine, L-N^α-acetyl-N^ε-thioacetyl-lysine]
SIRT1 inhibition at 2 mM (SIRT1): No inhibition | SIRT1 inhibition at 2 mM (SIRT1; listed as L-N^α-acetyl-N^ε-thioacetyl-lysine): did not exhibit any SIRT1 inhibition

Structure (SMILES): CC(=S)NCCCC[C@H](NC(=O)OCC1c2ccccc2-c2ccccc21)C(=O)O [N^α-Fmoc-N^ε-thioacetyl-lysine, L-N^α-Fmoc-N^ε-thioacetyl-lysine]
IC25 for SIRT1 (SIRT1; concentration to achieve 25% inhibition): 2,000 uM | IC25 SIRT1 (SIRT1; concentration to achieve 25% inhibition, 0.5 mM β-NAD+, 0.3 mM peptide substrate): 2,000 (IC25) μM
